Laboratory results: ChEMBL document CHEMBL3507680, “University of Dundee, Gates Library screen for HepG2 cell viability”

assay: Human HepG2 cell viability assay in 384 well format; format: toxicity, cell-based; parameters: dose 125 nL, time 70.5 hour; cytotoxicity at 70.5 h: concentration not given beside the values; details: HepG2 cells, read-out: Inhibition

SMILES | cytotoxicity at 70.5 h [%]
C1CN(CCN2CCOCC2)CCN1 | -0.136
O=C1CO[C@H]2CN(C3CCOCC3)C[C@H]2N1Cc1ccncc1 | 0.0501
CNC(=O)C(C)(C)N1CCC[C@H]1C(=O)NCCN1CCOCC1 | -6.76
O=C1C[C@@H]2CCN(Cc3ccccc3)C[C@@H]2CCN1C1CCCCC1 | 6.87
COCCOc1ccc(-c2noc([C@@H]3CCCN3C3CCC3)n2)cn1 | -3.43
COCCOc1ccnc(-c2noc([C@@H]3CCCN3CC3CC3)n2)c1 | -9.26
COCCOc1ccnc(-c2noc([C@@H]3CCCN3C3CCC3)n2)c1 | -5.26
CC(C)C[C@@H]1N[C@H](C(=O)NC(C)C)Cc2c[nH]c3cccc1c23 | -1.24
CCN(CC)C1(Cc2cc(-c3cccc(O)c3)on2)COC1 | -8.06
N#Cc1ccc(CN2C[C@@H]3OCC(=O)N(CC(N)=O)[C@@H]3C2)cc1 | -3.35
CC(C)(C)c1coc([C@@H]2COCCN2Cc2csnn2)n1 | -1.66
COCC(=O)N[C@H]1C[C@@H](Cc2cc(CN3CCOCC3)on2)C1(C)C | 11.2
CC[C@H]1CN(S(C)(=O)=O)CC[C@H]1CC(=O)NCCOC | 9.53
Cn1ccnc1CN1C(=O)CO[C@H]2CN(Cc3ccccc3O)C[C@H]21 | -1.59
CC(=O)N1CCC(N2CCOC[C@H]2c2nc(-c3ccc(Cl)s3)c[nH]2)CC1 | -2.53
COCCN1C[C@H]2CN(C(=O)C3CC3)CCN2C1=O | 3.48
Cn1cc(CN2CCOC[C@H]2c2nc(C(C)(C)C)co2)c2ccccc21 | -2.71
Cc1nn(CCC#N)c(C)c1[C@@H]1C=C[C@@H](NCc2cccc(Cl)c2)C1 | -4.45
O=C(N[C@@H]1CNCCC[C@H]1O)c1ccc(OCc2ccccc2)cc1 | -2.25
COc1ccc(-c2noc([C@@H]3C[C@H](NC(=O)NC(C)C)CN3C)n2)cc1 | -0.383
CCS(=O)(=O)c1ccc2oc([C@H]3CCN(Cc4ccccc4)C3)nc2c1 | 2.59
O=C(C1CC1)N1CC[C@H](c2nnc(Cc3c[nH]c4ccccc34)o2)C1 | -1.09

SMILES | cytotoxicity at 70.5 h [%]
CC(=O)N1CCC(N2CCN3C(=O)N(c4ccccc4)C[C@H]3C2)CC1 | 3.66
c1ccc(O[C@H]2COCCN(CC3CC3)C2)cc1 | -1.48
O=C(NC[C@H]1OC[C@@H](NCc2ccccc2F)[C@@H]1O)c1ccc(F)cc1 | -3.67
O[C@H]1CC[C@@H](Cc2cc(-c3ccccc3)on2)O[C@@H]1CNCC1CC1 | -5.25
Cc1ccc(CNC[C@H]2Cn3cc(-c4ccccc4)nc3CO2)cc1 | -4.13
Cc1cccnc1CNC[C@H]1Cn2cc(-c3ccccc3)nc2CO1 | -6.83
COc1ccc(CN2CC[C@H](c3nc4cccc(C(N)=O)c4[nH]3)C2)cc1 | 3.39
F[C@@H]1CN(CC2CCCCC2)C[C@@H]1OCc1nc2ccccc2o1 | 1.33
CCS(=O)(=O)c1ccc2oc([C@H]3CCN(Cc4ccccn4)C3)nc2c1 | 2.52
CN1CCC(N[C@@H]2CO[C@H](CNC(=O)Nc3ccccc3)[C@H]2O)CC1 | -2.44
O=C(NC[C@H]1OC[C@@H](NC2CCC(F)(F)CC2)[C@@H]1O)c1ccccc1 | -0.0244
O=C1N(C2CCCCC2)C[C@H]2CN(C3CCC3)CCN12 | 9.88
CS(=O)(=O)NC[C@H]1Cn2c(-c3ccc4c(c3)OCCO4)cnc2CO1 | -13.2
CC[C@H]1CN(S(C)(=O)=O)CC[C@H]1CC(=O)NCCSC | -2.51
CC(C)(C)C(=O)N1CC[C@H]2NC(=O)N(c3ccc(F)cc3)C(=O)[C@H]21 | -4.77
O=C1N[C@@H]2CCN(C(=O)C3CC3)[C@@H]2C(=O)N1c1ccc(F)cc1 | -13.5
CC(C)(C)CC(=O)N1CC[C@@H](CC(=O)O)[C@@H](CCN2CCCCC2)C1 | 8.46
O=C1N[C@@H]2CCN(C(=O)N3CCOCC3)[C@@H]2C(=O)N1Cc1ccccc1 | -4.61
CS(=O)(=O)N1CC[C@@H](CC(=O)O)[C@@H](CC2=NCCc3cc(F)ccc32)C1 | -6.32
CC(C)(C)c1cn(C[C@H]2CC3CCN2C[C@@H]3C(=O)NC2CC2)nn1 (stereo partly drawn) | 10.5
O=C(Nc1ccccc1)[C@H]1CN2CC[C@H]1C[C@@H]2Cn1cc(CCO)nn1 | -3.35
COc1ccc(C(=O)N2CCN3C(=O)CNC(=O)[C@@H]3C2)cc1 | 12.5

SMILES | cytotoxicity at 70.5 h [%]
COCC(=O)NC[C@H]1C[C@@H]2CCN1C[C@@H]2c1cc(-c2cccs2)nn1C | -7.87
O=C(NC[C@H]1C[C@@H]2CCN1C[C@@H]2CN1CCCCC1)Nc1ccccc1 | -1.01
CN(C)CCN1C(=O)CCCC12CCCN(Cc1ccc[nH]1)C2 (stereo not drawn) | 26
O=C(C1CCOCC1)N1C[C@H]2CNC[C@H]2C1 | -1.57
CCS(=O)(=O)N1CCC2(CCN(CC(=O)N(C)C)C2=O)CC1 | -1.33
O=C(NCc1ccccc1)N1C[C@H]2CCN[C@H]2C1 | 26
CC(=O)N1CCC2(CCN(S(=O)(=O)c3ccccc3)CC2)C1 | 22.3
CC(=O)N1CCC2(CC1)CCN(S(=O)(=O)c1ccccc1)C2 | 29.2
CCCS(=O)(=O)N1C[C@H]2C[C@H](C(=O)N3CCOCC3)[C@@H](C1)O2 | -4.21
O=C(CCc1ccccc1)N1C[C@H]2CCN[C@H]2C1 | -7.82
CCn1nc2nc(SCC(=O)O)cc(C(F)F)c2c1C | -5.31
CCn1cc(N)c(-c2nnc3n2CCCC3)n1 | -2.65
Cn1nccc1CNC(=O)CCn1nc(C(F)(F)F)cc1C1CC1 | -4.88
Cn1nccc1CNC(=O)CCn1nc(C(F)(F)F)c(Cl)c1C1CC1 | -3.15
Cc1cc(C)n(NC(=O)c2ccccc2C)c(=O)c1 | -3.12
Cn1ncc(NC(=O)c2noc3c2CCCC3)c1C(=O)N1CCCCC1 | -6.23
COc1ccc(N(c2ccccc2)c2ccc(C(=O)O)s2)cc1 | -0.368
O=C1CCC(=O)N1c1nn(Cc2c(F)cccc2Cl)cc1Cl | 6.93
CCn1ncc(-c2cc(C(F)F)n3nc(CCC(=O)O)nc3n2)c1C | -1.79
CCN(CC)C(=O)c1c(Cl)cnn1CC | -0.536
NC1C=C(C(F)(F)F)NC=C1c1ccccc1 (stereo not drawn) | -0.126
CC(C)c1ccc(-c2nonc2N)cc1 | 1.97

SMILES | cytotoxicity at 70.5 h [%]
CC(C)c1cc(CN2CCC(N)CC2)on1 | 19.4
CC(C)c1cc(CN2CCC(CC(=O)O)CC2)no1 | -2.18
CCN(CC)C(=O)c1c(Br)cnn1CC | -2.09
CC(C)(C)C(Cn1cccn1)NC(=O)c1ccco1 (stereo not drawn) | -2.47
O=C1CCC(=O)N1c1nn(Cc2cccc(F)c2)cc1Cl | -0.348
Cc1cc(I)c2c(c1)C(=O)C(CN1CCCC1)(CN1CCCC1)CO2 | -0.395
Cc1nnc(SCc2ccccn2)s1 | 1.03
Fc1ccccc1C1NCCc2cc3c(cc21)OCCO3 (stereo not drawn) | 0.151
Cc1cc(C)n(CNc2nonc2C(N)=O)n1 | 36
O=C(CN1CCCCC1)Nc1ncc(Br)cc1Br | 48.9
O=C(O)CCc1nc2nccc(-c3ccc(F)cc3)n2n1 | 20.1
Cn1cc(-c2cc(C(F)(F)F)n(CCCN)n2)cn1 | 20
CCC(CCN)n1ccc(C(F)(F)F)n1 (stereo not drawn) | 4.74
COc1ccccc1CNc1cnn(CC(F)F)c1 | 1.56
COC(=O)c1ccc(CNCc2ccn(C)n2)cc1 | 17.7
O=C(O)CCc1nc2nccc(C(F)(F)F)n2n1 | 0.723
O=C(O)c1cc(-c2cccs2)nc2c(Cl)cnn12 | -5.65
N#Cc1cc2c(nc1SCc1cc(O)nc(O)n1)CCCC2 | -7.89
COC(=O)N1CC(C)=C(C)CN1C(=O)Nc1ccc(Cl)cc1 | 3.18
Cc1cc(Br)c(O)c(-c2nc(N3CCCCC3)sc2C)c1 | 13.1
CCCc1c(C(=O)NC2CCCC2)nnn1-c1ccc(OC)cc1 | 16.8
COc1ccc(-c2ccnc3c2C(=O)CCC3)cc1 | 25.7

SMILES | cytotoxicity at 70.5 h [%]
CC(C)c1cc(C(F)(F)F)n2nc(CCC(=O)O)nc2n1 | 10.3
CCn1cc(CN(C)S(=O)(=O)c2cnn(CC)c2C)c(C)n1 | 5.14
COc1ccc(Oc2cncc(C3CCCN3C(C)=O)n2)cc1 (stereo not drawn) | 31.7
Cc1cc2cc(C(=O)N[C@@H]3CC[C@@H](N4CCOCC4)[C@@H]3O)ccc2o1 | 24.8
CNC(=O)C1(N2CCC[C@H]2C(=O)NC2CCCCC2)CCOCC1 | 5.4
CCNC(=O)[C@@H]1CCCN1[C@@H](C(=O)NC)C1CC1 | -2.16
CCCNC(=O)[C@@H]1CCCN1[C@@H](C(=O)NC)C1CC1 | -11.8
CNC(=O)C1(N2CCC[C@H]2C(=O)NC2CCOCC2)CCOCC1 | -6.78
CC(C)NC[C@@]1(COc2ccccc2)C[C@@H](O)[C@@H](O)C1 | -5.31
CNC(=O)C(C)(C)N1CCC[C@H]1C(=O)NCC(C)C | -6.89
CCc1ccc(CN2CC[C@@H]3NC(=O)CC[C@@H]32)o1 | 27
O=C(C1CC1)N1CCC2(CCN2Cc2ccc(F)cc2)C1 (stereo not drawn) | -0.516
Cc1nc(CN2C[C@@H]3CN(C(=O)c4cccn4C)C[C@@H]3C2)cs1 | -6.14
CCN1C(=O)CC(c2ccccc2)C12CCN(CC1CCOCC1)CC2 (stereo not drawn) | -8.46
COc1ccc(C[C@H]2CNCC[C@@H]2OC)cc1 | -5.86
CC(C)NC(=O)N1CC[C@H]2[C@H]1CCN2c1ncccn1 | -5.58
Cc1ccc(CN2C[C@@H]3CN(C(=O)c4cccn4C)C[C@@H]3C2)cc1 | -3.66
Cc1cccc(CN2CCCCC23CCNC3)n1 (stereo not drawn) | -8.16
CN1CCN(Cc2cccnc2)C(=O)C12CCN(Cc1ccco1)CC2 | -8.43
CN1CCCCc2c1nc1c(c2N)CCC1.O=C(O)c1cc([N+](=O)[O-])ccc1Cl | -11.7
